# Measurements as given in patent US20100267561A1, “HERBICIDAL PYRIDAZINONE DERIVATIVES” (priority 2007, published 2010).
# Columns and labels:
# Assay type in all cases: in vivo
# [1] = system: bermudagrass (Cynodon dactylon); experiment: Test B pre-/postemergence plant response
# Outline: (§1)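 Visual scoring from 0 (no effect) to 100 (complete control) against untreated controls was done 13 to 15 days after greenhouse treatment. Chemicals were formulated in a surfactant-containing non-phytotoxic solvent and applied to soil preemergence or to 1- to 4-leaf (2-18 cm) plants postemergence.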
# [2] = system: morningglory (Ipomoea coccinea); experiment: Test B pre-/postemergence plant response
# Outline: as §1
# [3] = system: lambsquarters (Chenopodium album); experiment: Test B pre-/postemergence plant response
# Outline: as §1
# [4] = system: giant foxtail (Setaria faberii); experiment: Test B pre-/postemergence plant response
# Outline: as §1
# [5] = system: blackgrass (Alopecurus myosuroides); experiment: Test B pre-/postemergence plant response
# Outline: as §1
# wild oat (Avena fatua) = experiment: Test B pre-/postemergence plant response
# Outline: as §1
# [6] = system: yellow nutsedge (Cyperus esculentus); experiment: Test B pre-/postemergence plant response
# Outline: as §1
# [7] = system: eastern black (E.B.) nightshade (Solanum ptycanthum); experiment: Test B pre-/postemergence plant response; settings: Preemergence, 250 g ai/ha; scale 0 to 100
# Outline: as §1
# [8] = system: velvetleaf (Abutilon theophrasti); experiment: Test B pre-/postemergence plant response
# Outline: as §1
# corn (Zea mays) = experiment: Test B pre-/postemergence plant response
# Outline: as §1
# [9] = system: barnyardgrass (Echinochloa crus-galli); experiment: Test B flooded paddy test plant response
# Outline: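 Compounds were added directly to paddy water over 2-leaf-stage plants in pots flooded 3 cm above soil, water depth maintained. Visual injury scored against controls after 13 to 15 days in greenhouse, 0 (none) to 100 (complete control); dash indicates no result.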
# [10] = system: windgrass (Apera spica-venti); experiment: Test B postemergence plant response; settings: Postemergence
# Outline: (§2)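 Visual injury ratings on a 0–100 scale, where 100 means complete control, were made 13 to 15 days after postemergence treatment of greenhouse-grown plants at the 1- to 4-leaf stage.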
# [11] = system: winter barley (Hordeum vulgare); experiment: Test B postemergence plant response; settings: Postemergence
# Outline: as §2
# [12] = system: chickweed (Stellaria media); experiment: Test B postemergence plant response; settings: Postemergence
# Outline: as §2
# [13] = system: canarygrass (Phalaris minor); experiment: Test B postemergence plant response; settings: Postemergence
# Outline: as §2
# [14] = 250 g ai/ha, preemergence, 0-100 scale
# [15] = Postemergence, 31 g ai/ha, scale 0 to 100, 0 no effect, 100 complete control
# [16] = Postemergence, 62 g ai/ha, scale 0 to 100
# [17] = Postemergence, 125 g ai/ha, scale 0 to 100
# [18] = Postemergence, 250 g ai/ha, scale 0 to 100
# [19] = Preemergence, 31 g ai/ha, 0 to 100 scale, 0 no effect, 100 complete control
# [20] = Preemergence, 62 g ai/ha, scale 0 to 100
# [21] = Preemergence, 125 g ai/ha, scale 0 to 100
# [22] = Preemergence, 250 g ai/ha, scale 0 to 100
# [23] = 31 g ai/ha, scale 0 to 100, 0 no effect, 100 complete control
smiles,measurement,setting,value
Cc1cc(-c2ccc(Br)cc2)nn1-c1c(O)cnn(C)c1=O [Compound 4],Bermudagrass plant response rating,[1]; [14],100
same,"Plant response rating, Bermudagrass",[1]; [15],100
same,"Plant response rating, Bermudagrass",[1]; [16],100
same,"Plant response rating, Bermudagrass",[1]; [17],100
same,"Plant response rating, Bermudagrass",[1]; [18],100
same,"Plant response rating, Bermudagrass",[1]; [19],100
same,"Plant response rating, Bermudagrass",[1]; [20],100
same,"Plant response rating, Bermudagrass",[1]; [21],100
same,"Plant response rating, Morningglory",[2]; [15],0
same,"Plant response rating, Morningglory",[2]; [16],0
same,"Plant response rating, Morningglory",[2]; [17],0
same,"Plant response rating, Morningglory",[2]; [18],0
same,"Plant response rating, Morningglory",[2]; [19],0
same,"Plant response rating, Morningglory",[2]; [20],0
same,"Plant response rating, Morningglory",[2]; [21],0
same,"Plant response rating, Morningglory",[2]; [22],30
same,"Plant response rating, Lambsquarters",[3]; [15],0
same,"Plant response rating, Lambsquarters",[3]; [16],0
same,"Plant response rating, Lambsquarters",[3]; [17],60
same,"Plant response rating, Lambsquarters",[3]; [18],80
same,"Plant response rating, Lambsquarters",[3]; [20],85
same,"Plant response rating, Lambsquarters",[3]; [21],85
same,"Plant response rating, Lambsquarters",[3]; [22],90
same,"Plant response rating, Foxtail, Giant",[4]; [15],100
same,"Plant response rating, Foxtail, Giant",[4]; [16],100
same,"Plant response rating, Foxtail, Giant",[4]; [17],100
same,"Plant response rating, Foxtail, Giant",[4]; [18],100
same,"Plant response rating, Foxtail, Giant",[4]; [19],100
same,"Plant response rating, Foxtail, Giant",[4]; [20],100
same,"Plant response rating, Foxtail, Giant",[4]; [21],100
same,"Plant response rating, Foxtail, Giant",[4]; [22],100
same,Blackgrass plant response rating,[5]; [14],100
same,"Plant response rating, Blackgrass",[5]; [15],90
same,"Plant response rating, Blackgrass",[5]; [16],100
same,"Plant response rating, Blackgrass",[5]; [17],100
same,"Plant response rating, Blackgrass",[5]; [18],100
same,"Plant response rating, Blackgrass",[5]; [19],100
same,"Plant response rating, Blackgrass",[5]; [20],100
same,"Plant response rating, Blackgrass",[5]; [21],100
same,"Plant response rating, Oat, Wild",wild oat (Avena fatua); [15],98
same,"Plant response rating, Oat, Wild",wild oat (Avena fatua); [16],100
same,"Plant response rating, Oat, Wild",wild oat (Avena fatua); [17],100
same,"Plant response rating, Oat, Wild",wild oat (Avena fatua); [18],100
same,"Plant response rating, Oat, Wild",wild oat (Avena fatua); [19],65
same,"Plant response rating, Oat, Wild",wild oat (Avena fatua); [20],70
same,"Plant response rating, Oat, Wild",wild oat (Avena fatua); [21],85
same,"Plant response rating, Oat, Wild",wild oat (Avena fatua); [22],95
same,"Plant response rating, Nutsedge, Yellow",[6]; [15],0
same,"Plant response rating, Nutsedge, Yellow",[6]; [16],0
same,"Plant response rating, Nutsedge, Yellow",[6]; [17],0
same,"Plant response rating, Nutsedge, Yellow",[6]; [18],0
same,"Plant response rating, Nutsedge, Yellow",[6]; [19],0
same,"Plant response rating, Nutsedge, Yellow",[6]; [20],0
same,"Plant response rating, Nutsedge, Yellow",[6]; [21],0
same,"Plant response rating, Nightshade, E. B.",[7],80
same,"Plant response rating, Velvetleaf",[8]; [15],5
same,"Plant response rating, Velvetleaf",[8]; [16],5
same,"Plant response rating, Velvetleaf",[8]; [17],20
same,"Plant response rating, Velvetleaf",[8]; [18],45
same,"Plant response rating, Velvetleaf",[8]; [19],0
same,"Plant response rating, Velvetleaf",[8]; [20],0
same,"Plant response rating, Velvetleaf",[8]; [21],40
same,"Plant response rating, Velvetleaf",[8]; [22],50
same,"Plant response rating, Corn",corn (Zea mays); [15],90
same,"Plant response rating, Corn",corn (Zea mays); [16],95
same,"Plant response rating, Corn",corn (Zea mays); [17],100
same,"Plant response rating, Corn",corn (Zea mays); [18],100
same,"Plant response rating, Corn",corn (Zea mays); [19],85
same,"Plant response rating, Corn",corn (Zea mays); [20],95
same,"Plant response rating, Corn",corn (Zea mays); [21],98
same,"Plant response rating, Corn",corn (Zea mays); [22],100
same,"Plant response rating, Barnyardgrass","[9]; Flood (flooded paddy test), 62 g ai/ha, scale 0 to 100, 0 no effect, 100 complete control",60
same,"Plant response rating, Barnyardgrass","[9]; Flood (flooded paddy test), 125 g ai/ha, scale 0 to 100, 0 no effect, 100 complete control",70
same,"Plant response rating, Barnyardgrass","[9]; Flood (flooded paddy test), 250 g ai/ha, scale 0 to 100, 0 no effect, 100 complete control",75
same,"Plant response rating, Barnyardgrass","[9]; Flood, 31 g ai/ha, scale 0 to 100",0
same,"Plant response rating, Windgrass",[10]; [23],90
same,"Plant response rating, Windgrass","[10]; 62 g ai/ha, scale 0 to 100",100
same,"Plant response rating, Windgrass","[10]; 125 g ai/ha, scale 0 to 100",100
same,"Plant response rating, Windgrass","[10]; 250 g ai/ha, scale 0 to 100",100
same,"Plant response rating, Barley",[11]; [23],0
same,"Plant response rating, Barley","[11]; 62 g ai/ha, scale 0 to 100",10
same,"Plant response rating, Barley","[11]; 125 g ai/ha, scale 0 to 100",90
same,"Plant response rating, Barley","[11]; 250 g ai/ha, scale 0 to 100",95
same,"Plant response rating, Chickweed",[12]; [23],0
same,"Plant response rating, Chickweed","[12]; 62 g ai/ha, scale 0 to 100",0
same,"Plant response rating, Chickweed","[12]; 125 g ai/ha, scale 0 to 100",0
same,"Plant response rating, Chickweed","[12]; 250 g ai/ha, scale 0 to 100",20
same,"Plant response rating, Canarygrass",[13]; [23],80
same,"Plant response rating, Canarygrass","[13]; 62 g ai/ha, scale 0 to 100",90
same,"Plant response rating, Canarygrass","[13]; 125 g ai/ha, scale 0 to 100",100
same,"Plant response rating, Canarygrass","[13]; 250 g ai/ha, scale 0 to 100",100
